{"source": "paper PMC12282101", "about": "“Heat shock protein 90 chaperone activity is required for hepatitis A virus replication” (Journal of Virology, 2025)", "key": {"Huh-7.5.1 cells [1]": {"tested_on": "Huh-7.5.1 cells", "conditions": "Huh-7.5 or Huh-7.5.1 cells, RT-qPCR experiments"}, "293T cells": {"tested_on": "293T cells", "assay": "Cytotoxicity in 293T cells"}, "18f-NLuc reporter virus [2]": {"tested_on": "18f-NLuc reporter virus", "assay": "microbe, parasite or virus in culture", "type": "cell-based, Hepatitis A virus", "conditions": "read-out: IC50, HAV replication by NLuc", "description": "Cells were lysed in 1× passive lysis buffer (Promega, #E1941) for 15 min at room temperature, then lysates were transferred to opaque white 96-well plates (Corning, #3912). NLuc activity was quantified using the NLuc GLOW Assay kit (Nanolight Technology, #325), and FLuc assays were carried out with the Luciferase Assay System (Promega, E1500). Luminescence was measured using a Biotek Synergy II multi-mode plate reader (BioTek Instruments)."}, "18f-NLuc reporter virus [3]": {"tested_on": "18f-NLuc reporter virus", "type": "cell-based, Hepatitis A virus"}, "HAV [4]": {"tested_on": "HAV", "assay": "microbe, parasite or virus in culture", "type": "cell-based, Hepatitis A virus", "conditions": "read-out: IC50, HAV replication by RT-qPCR"}, "HM175/18f virus [5]": {"tested_on": "HM175/18f virus"}, "HAV IRES": {"tested_on": "HAV IRES", "type": "cell-based, Hepatitis A virus", "conditions": "100 nM"}, "[6]": {"tested_on": "mouse-passaged HM175 strain of HAV", "design": "species or system Ifnar1^-/- mice", "conditions": "in vivo, ip"}, "HM175/18f virus [7]": {"tested_on": "HM175/18f virus", "assay": "microbe, parasite or virus in culture", "conditions": "Hepatovirus A"}, "18f virus": {"tested_on": "18f virus", "type": "cell-based, Hepatitis A virus", "conditions": "cells infected 72 h, then treated 24 h"}, "Huh-7.5.1 cells [8]": {"tested_on": "Huh-7.5.1 cells", "assay": "Cell viability in the chemical screen (Cell TiterGlo)", "conditions": "10 µM compound, 72 h"}, "18f-NLuc reporter virus [9]": {"tested_on": "18f-NLuc reporter virus", "assay": "microbe, parasite or virus in culture", "conditions": "Hepatovirus A, Huh7.5, 48 h, read-out: IC50, HAV replication by NLuc"}, "in vitro [10]": {"assay": "in vitro", "conditions": "rhesus monkey, CC50, FRhK4 cells"}, "18f-NLuc reporter virus [11]": {"tested_on": "18f-NLuc reporter virus", "assay": "microbe, parasite or virus in culture", "type": "cell-based, Hepatitis A virus", "conditions": "Hepatovirus A, FRhK-4, 48 h, read-out: IC50, HAV replication by NLuc"}, "in vitro [12]": {"assay": "in vitro", "conditions": "human, CC50, Huh-7.5 cells, cellular ATP assay"}, "PV1-NLuc [13]": {"tested_on": "PV1-NLuc", "assay": "microbe, parasite or virus in culture", "type": "cell-based, type 1 poliovirus", "conditions": "Enterovirus C, FRhK-4, 16 h, read-out: IC50, PV1-NLuc replication"}, "PV1-NLuc [14]": {"tested_on": "PV1-NLuc", "assay": "microbe, parasite or virus in culture", "type": "cell-based, type 1 poliovirus", "conditions": "Enterovirus C, Huh7.5, 16 h, read-out: IC50, PV1-NLuc replication"}, "PeV-A1-NLuc": {"tested_on": "PeV-A1-NLuc", "type": "cell-based, human parechovirus A1", "conditions": "A549 cells"}, "HAV [15]": {"tested_on": "HAV", "conditions": "FRhK4 fetal rhesus kidney cells; ref 16 Aragonès et al.; read-out: IC50, HAV replication; cited from earlier work"}, "HAV [16]": {"tested_on": "HAV", "assay": "microbe, parasite or virus in culture", "type": "cell-based, Hepatitis A virus", "conditions": "Hepatovirus A; 30 nM, Huh-7.5.1 cells; read-out: Inhibition of infectious virus released"}, "HAV-FLuc": {"tested_on": "HAV-FLuc", "assay": "microbe, parasite or virus in culture", "type": "cell-based, Hepatitis A virus"}, "poliovirus": {"tested_on": "poliovirus", "conditions": "HeLa S3 cells; read-out: IC50, poliovirus replication; cited from earlier work"}, "3C^pro [17]": {"tested_on": "3C^pro", "type": "cell-based, Hepatitis A virus"}, "ACC1": {"tested_on": "ACC1", "assay": "Immunoblot of ACC1 in Huh-7.5 cells", "type": "cell-based, human", "conditions": "200 nM, 24 hours"}, "3C^pro [18]": {"tested_on": "3C^pro", "type": "cell-based, Hepatitis A virus", "remark": "listed apart in the source"}, "18f-NLuc reporter virus [19]": {"tested_on": "18f-NLuc reporter virus", "assay": "microbe, parasite or virus in culture", "type": "cell-based, Hepatitis A virus", "conditions": "Hepatovirus A, Huh-7.5.1, 72 h, read-out: Normalized HAV production"}, "RV-B14-FLuc": {"tested_on": "RV-B14-FLuc", "type": "cell-based, rhinovirus B14", "conditions": "up to 1 µM, Huh-7.5 cells"}}, "note": "pIC50: −log10 of the molar value. “Also recorded” adds a separate entry of the source. Where two headings read alike, the source gives them in different places."}
{"smiles": "C=CCNC1=C2C[C@@H](C)C[C@H](OC)[C@H](O)[C@@H](C)/C=C(\\C)[C@H](OC(N)=O)[C@@H](OC)/C=C\\C=C(/C)C(=O)NC(=CC1=O)C2=O", "note": "[17-AAG]", "values": [{"measurement": "CC50", "setting": "Huh-7.5.1 cells [1]", "result": 418, "unit": "nM"}, {"measurement": "CC50", "setting": "293T cells", "result": "> 1000", "unit": "nM"}, {"measurement": "pIC50", "setting": "18f-NLuc reporter virus [2]; 293T cells", "result": 7.93}, {"measurement": "NLuc expression at 48 hours post-infection", "setting": "18f-NLuc reporter virus [3]", "result": "neither case did either HSP90 inhibitor reduce NLuc expression"}, {"measurement": "pIC50", "setting": "HAV [4]; PH5CH8 cells", "result": 8.49}, {"measurement": "Fold by which IC50 is below CC50", "setting": "HM175/18f virus [5]; hepatocyte-derived cells, RT-qPCR", "result": "approximately 30 fold"}, {"measurement": "pIC50", "setting": "HM175/18f virus [5]; read-out: IC50, HAV replication by RT-qPCR", "result": 7.85}, {"measurement": "GFP synthesis from circRNA HAV IRES reporter", "setting": "HAV IRES", "result": "neither geldanamycin nor 17-AAG inhibited; also recorded: had no effect"}, {"measurement": "Area occupied by IBA-positive cells in liver section", "setting": "[6]", "result": "significantly reduced"}, {"measurement": "Increase in serum alanine aminotransferase (ALT) activity versus vehicle", "setting": "[6]", "result": "significantly lower"}, {"measurement": "Inflammatory cell infiltrates in liver sections (H&E)", "setting": "[6]", "result": "notably fewer and smaller in size"}, {"measurement": "Number of IBA1-positive cells in liver section", "setting": "[6]", "result": "significantly reduced"}, {"measurement": "Viral RNA in feces versus vehicle", "setting": "[6]", "result": "significantly reduced"}, {"measurement": "Viral RNA in liver versus vehicle", "setting": "[6]", "result": "significantly reduced"}, {"measurement": "Viral RNA in serum versus vehicle", "setting": "[6]", "result": "significantly reduced"}]}
{"smiles": "COC1=C2C[C@@H](C)C[C@H](OC)[C@H](O)[C@@H](C)/C=C(\\C)[C@H](OC(N)=O)[C@@H](OC)/C=C\\C=C(/C)C(=O)NC(=CC1=O)C2=O", "note": "[Geldanamycin]", "values": [{"measurement": "pIC50", "setting": "HM175/18f virus [7]; Huh7.5, in Homo sapiens, read-out: 50% inhibitory concentration, HAV replication", "result": "7.93 to 8.06"}, {"measurement": "pIC50", "setting": "HM175/18f virus [7]; Huh-7.5.1, read-out: IC50, HAV replication by RT-qPCR", "result": 7.93}, {"measurement": "VP1 and 3ABC proteins in infected cell lysates", "setting": "18f virus", "result": "concentration-related decreases"}, {"measurement": "Viability Percent DMSO", "setting": "Huh-7.5.1 cells [8]", "result": 61, "unit": "Percent DMSO"}, {"measurement": "pIC50", "setting": "18f-NLuc reporter virus [2]; Hepatovirus A, HEK-293T", "result": 8.33}, {"measurement": "NLuc expression at 48 hours post-infection", "setting": "18f-NLuc reporter virus [3]", "result": "neither case did either HSP90 inhibitor reduce NLuc expression"}, {"measurement": "pIC50", "setting": "18f-NLuc reporter virus [9]", "result": 8.06}, {"measurement": "CC50", "setting": "in vitro [10]", "result": "> 10", "unit": "µM"}, {"measurement": "CC50", "setting": "in vitro [10]; cellular ATP assay", "result": 59, "unit": "µM"}, {"measurement": "pIC50", "setting": "18f-NLuc reporter virus [11]", "result": 6.09}, {"measurement": "CC50", "setting": "in vitro [12]", "result": 5.1, "unit": "µM"}, {"measurement": "pIC50", "setting": "HAV [4]; Hepatovirus A", "result": 8.37}, {"measurement": "pIC50", "setting": "PV1-NLuc [13]", "result": "< 5.00"}, {"measurement": "pIC50", "setting": "PV1-NLuc [14]", "result": 6.74}, {"measurement": "Replication of subgenomic human parechovirus A1 replicon (in words)", "setting": "PeV-A1-NLuc", "result": "minimally inhibits; also recorded: resistant"}, {"measurement": "pIC50", "setting": "HAV [15]", "result": 5.27}, {"measurement": "inhibition at 0.03 µM", "setting": "HAV [16]", "result": "> 50", "unit": "%"}, {"measurement": "GFP synthesis from circRNA HAV IRES reporter", "setting": "HAV IRES", "result": "had no effect"}, {"measurement": "GFP synthesis from circRNA HAV IRES reporter", "setting": "HAV IRES; listed as geldanamycin", "result": "neither geldanamycin nor 17-AAG inhibited"}, {"measurement": "Replication of subgenomic HAV RNA replicon (in words)", "setting": "HAV-FLuc", "result": "potently inhibited"}, {"measurement": "pIC50", "setting": "HAV-FLuc; Hepatovirus A, Huh7.5, 24 h, read-out: IC50, HAV-FLuc replicon", "result": 7.54}, {"measurement": "pIC50", "setting": "poliovirus", "result": 6.96}, {"measurement": "Inhibition of 3ABCD processing", "setting": "3C^pro [17]; 0.1 µM", "result": "no inhibition"}, {"measurement": "Amount of 3ABC product from HA-3ABCD", "setting": "3C^pro [17]; 1 µM", "result": "modestly reduced"}, {"measurement": "Abundance of ACC1", "setting": "ACC1", "result": "did not reduce"}, {"measurement": "Cleavage of GFP-MAVS by 3ABC", "setting": "3C^pro [18]", "result": "no impact"}, {"measurement": "activity at 10 µM", "setting": "18f-NLuc reporter virus [19]", "result": 0.0718, "unit": "%"}, {"measurement": "Luciferase expression from subgenomic rhinovirus B14 replicon (in words)", "setting": "RV-B14-FLuc", "result": "does not inhibit"}, {"measurement": "Luciferase expression from subgenomic rhinovirus B14 replicon (in words)", "setting": "RV-B14-FLuc; listed as geldanamycin", "result": "fails to inhibit"}]}
